Biological target: T1, KRAS G12C (GMPPNP-loaded) and cRAF (Ras-binding domain) interaction (Homo sapiens, UniProt P01116, C118S/C51S/C80L/G12C)
T1 construct: truncated version comprising amino acids 1-169
Experiment: AlphaScreen inhibition of KRAS G12C and cRAF binding
Format: biochemical
Conditions: KRAS G12C preloaded with GTP analogue GMPPNP, 2 hours preincubation
Protocol: The AlphaScreen technology was used to determine IC50s for compound inhibition of KRAS G12C (present as the Cys-light (C51S, C80L and C118S), truncated version comprising amino acids 1-169) and cRAF interaction. Compounds were diluted in 100% DMSO and each compound concentration was spotted at 200 nl/well onto low volume, white 384 well plates. The KRAS G12C contained a biotin-AviTag and the cRaf, as Ras-binding domain (amino acids 50-131, RBD), was GST-tagged. KRAS G12C was preloaded with the GTP analogue Guanosine 5′-[β,γ-imido]triphosphate (GMPPNP). The KRAS G12C was diluted in 25 mM Hepes, pH 7.4, 150 mM NaCl, 5 mM MgCl2, 0.01% TritonX-100 and 10 μM GMPPNP and added at 10 ul/well to compound-spotted plates resulting in a DMSO concentration of 2%. Plates were incubated for 2 hours. A mixture of RBD and the AlphaScreen streptavidin donor and glutathione acceptor beads diluted in 25 mM Hepes, pH 7.4, 150 mM NaCl, 5 mM MgCl2, 0.01% TritonX-100 and 2% DMSO was then added at 10 ul/well and incubated for 60-90 minutes before the samples were read for emission at 570 nm after excitation of the donor beads at 680 nm. All incubations were performed at room temperature. The final top compound concentration was 50 μM with 1:3 titrations for 10-point dose response curves. Final assay conditions were 0.5 nM KRAS G12C, 0.75 nM RBD and 5 ug/ml each of AlphaScreen donor and acceptor beads. IC50s were determined using nonlinear regression fit of [inhibitor] vs. response (4 parameters).
A counter assay was also set up to rule out inhibitors of the AlphaScreen technology itself. Compound plates were incubated for 2 hours as above with buffer only. The AlphaScreen beads were added as above except biotin-AviTag-GST was substituted for the RBD. Samples were read and analyzed as above.

T1 sequence (P01116 1-169 isoform P01116-2 G12C/C51S/C80L/C118S): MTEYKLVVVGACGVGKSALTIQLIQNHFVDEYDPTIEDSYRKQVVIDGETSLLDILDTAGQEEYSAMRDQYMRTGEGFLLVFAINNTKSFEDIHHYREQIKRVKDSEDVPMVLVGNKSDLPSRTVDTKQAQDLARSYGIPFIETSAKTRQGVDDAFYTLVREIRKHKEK

| IC50 | SMILES |
| --- | --- |
| < 10 nM | C#Cc1c(F)ccc2cccc(-c3ncc4c(N(C)[C@@H]5CCN(C(=O)/C=C/C(C)N(C)C)C5)nc(OC[C@@]56CCCN5C[C@H](F)C6)nc4c3F)c12 (stereo partly drawn) [Compound 32, (E)-4-(dimethylamino)-1-((R)-3-((7-(8-ethynyl-7-fluoronaphthalen-1-yl)-8-fluoro-2-(((2R,7aS)-2-fluorotetrahydro-1H-pyrrolizin-7a(5H)-yl)methoxy)pyrido[4,3-d]pyrimidin-4-yl)(methyl)amino)pyrrolidin-1-yl)pent-2-en-1-one] |
| 10 to 100 nM | CC(/C=C/C(=O)N1CCN(c2nc(OC[C@@]34CCCN3C[C@H](F)C4)nc3c(F)c(-c4cccc5cccc(Cl)c45)ncc23)C[C@@H]1CC#N)N1CC2CC(C1)O2 (some centres unmarked) [Compound 34] |
| 100 to 500 nM | CC(/C=C/C(=O)N1CC[C@@H](N(C)c2nc(OC[C@@]34CCCN3C[C@H](F)C4)nc3c(F)c(-c4cccc(Cl)c4C4CC4)ncc23)C1)N(C)C (some centres unmarked) [Compound 35] |
| 10 to 100 nM | C[C@H](/C=C/C(=O)N1CCN(c2nc(OC[C@@]34CCCN3C[C@H](F)C4)nc3c(F)c(-c4cccc5cccc(Cl)c45)ncc23)C[C@@H]1CC#N)N1CC2CC(C1)O2 [Compound 36] |
| 100 to 500 nM | C[C@@H](/C=C/C(=O)N1CCN(c2nc(OC[C@@]34CCCN3C[C@H](F)C4)nc3c(F)c(-c4cccc5cccc(Cl)c45)ncc23)C[C@@H]1CC#N)N1CC2CC(C1)O2 [Compound 37] |
| ≥ 500 nM | C[C@H](/C=C/C(=O)N1CCN(c2nc(OC[C@@]34CCCN3C[C@H](F)C4)nc3c(F)c(-c4cccc5cccc(Cl)c45)ncc23)C[C@@H]1CC#N)N1CC[C@H](F)C1 [Compound 38] |
| 100 to 500 nM | C[C@H](/C=C/C(=O)N1CCN(c2nc(OC[C@@]34CCCN3C[C@H](F)C4)nc3c(F)c(-c4cccc5cccc(Cl)c45)ncc23)C[C@@H]1CC#N)N1CC2CCC(C1)O2 [Compound 42] |
| 10 to 100 nM | C[C@H](/C=C/C(=O)N1CCN(c2nc(OC[C@@]34CCCN3C[C@H](F)C4)nc3c(F)c(-c4cccc(Cl)c4C4CC4)ncc23)C[C@@H]1CC#N)N(C)C [Compound 44, 2-((S)-4-(7-(3-chloro-2-cyclopropylphenyl)-8-fluoro-2-(((2R,7aS)-2-fluorotetrahydro-1H-pyrrolizin-7a(5H)-yl)methoxy)pyrido[4,3-d]pyrimidin-4-yl)-1-((R,E)-4-(dimethylamino)pent-2-enoyl)piperazin-2-yl)acetonitrile] |
| 10 to 100 nM | C[C@H](/C=C/C(=O)N1CCN(c2nc(OC[C@@]34CCCN3C[C@H](F)C4)nc3c(F)c(-c4cccc(Cl)c4C(F)(F)F)ncc23)C[C@@H]1CC#N)N(C)C [Compound 46, 2-((S)-4-(7-(3-chloro-2-(trifluoromethyl)phenyl)-8-fluoro-2-(((2R,7aS)-2-fluorotetrahydro-1H-pyrrolizin-7a(5H)-yl)methoxy)pyrido[4,3-d]pyrimidin-4-yl)-1-((R,E)-4-(dimethylamino)pent-2-enoyl)piperazin-2-yl)acetonitrile] |

The next lines start with the compound.

| SMILES | IC50 |
| --- | --- |
| C[C@@H](/C=C/C(=O)N1CCN(c2nc(OC[C@@]34CCCN3C[C@H](F)C4)nc3c(F)c(-c4cccc5cccc(Cl)c45)ncc23)C[C@@H]1CC#N)N1[C@@H]2CC[C@H]1COC2 [Compound 31, 2-((S)-1-((S,E)-4-((1R,5S)-3-oxa-8-azabicyclo[3.2.1]octan-8-yl)pent-2-enoyl)-4-(7-(8-chloronaphthalen-1-yl)-8-fluoro-2-(((2R,7aS)-2-fluorotetrahydro-1H-pyrrolizin-7a(5H)-yl)methoxy)pyrido[4,3-d]pyrimidin-4-yl)piperazin-2-yl)acetonitrile] | 10 to 100 nM |
| CC(/C=C/C(=O)N1CCN(c2nc(OC[C@@]34CCCN3C[C@H](F)C4)nc3c(F)c(-c4cccc5cccc(Cl)c45)ncc23)C[C@@H]1CC#N)N1CC2CCC(C1)O2 (some centres unmarked) [Compound 33] | 10 to 100 nM |
| CO[C@@H]1CCN([C@@H](C)/C=C/C(=O)N2CCN(c3nc(OC[C@@]45CCCN4C[C@H](F)C5)nc4c(F)c(-c5cccc6ccc(F)c(Cl)c56)ncc34)C[C@@H]2CC#N)C1 [Compound 39] | 100 to 500 nM |
| CO[C@@H]1CCN([C@H](C)/C=C/C(=O)N2CCN(c3nc(OC[C@@]45CCCN4C[C@H](F)C5)nc4c(F)c(-c5cccc6ccc(F)c(Cl)c56)ncc34)C[C@@H]2CC#N)C1 [Compound 40] | 100 to 500 nM |
| C[C@@H](/C=C/C(=O)N1CCN(c2nc(OC[C@@]34CCCN3C[C@H](F)C4)nc3c(F)c(-c4cccc5cccc(Cl)c45)ncc23)C[C@@H]1CC#N)N1C[C@@H]2C[C@H]1CO2 [Compound 41] | 10 to 100 nM |
| C[C@@H](/C=C/C(=O)N1CCN(c2nc(OC[C@@]34CCCN3C[C@H](F)C4)nc3c(F)c(-c4cccc5cccc(Cl)c45)ncc23)C[C@@H]1CC#N)N1CC2CCC(C1)O2 [Compound 43] | 100 to 500 nM |
| C[C@@H](/C=C/C(=O)N1CCN(c2nc(OC[C@@]34CCCN3C[C@H](F)C4)nc3c(F)c(-c4cccc(Cl)c4C4CC4)ncc23)C[C@@H]1CC#N)N(C)C [Compound 45, 2-((S)-4-(7-(3-chloro-2-cyclopropylphenyl)-8-fluoro-2-(((2R,7aS)-2-fluorotetrahydro-1H-pyrrolizin-7a(5H)-yl)methoxy)pyrido[4,3-d]pyrimidin-4-yl)-1-((S,E)-4-(dimethylamino)pent-2-enoyl)piperazin-2-yl)acetonitrile] | 100 to 500 nM |
| C[C@@H](/C=C/C(=O)N1CCN(c2nc(OC[C@@]34CCCN3C[C@H](F)C4)nc3c(F)c(-c4cccc(Cl)c4C(F)(F)F)ncc23)C[C@@H]1CC#N)N(C)C [Compound 47, 2-((S)-4-(7-(3-chloro-2-(trifluoromethyl)phenyl)-8-fluoro-2-(((2R,7aS)-2-fluorotetrahydro-1H-pyrrolizin-7a(5H)-yl)methoxy)pyrido[4,3-d]pyrimidin-4-yl)-1-((S,E)-4-(dimethylamino)pent-2-enoyl)piperazin-2-yl)acetonitrile] | ≥ 500 nM |
